One test has as its target FGFR2 (Homo sapiens (Human), UniProt P21802). Kind of test: Biochemical FGFR2 Caliper assay.
The next test has as its system SNU-16. The test is described as follows: Cell SNU-16 assay. It counts as cell-based. The note with it: Homo sapiens, SNU-16, SNU-16 cells.

The structures appear in SMILES notation.

FGFR2, sequence (P21802 22-821): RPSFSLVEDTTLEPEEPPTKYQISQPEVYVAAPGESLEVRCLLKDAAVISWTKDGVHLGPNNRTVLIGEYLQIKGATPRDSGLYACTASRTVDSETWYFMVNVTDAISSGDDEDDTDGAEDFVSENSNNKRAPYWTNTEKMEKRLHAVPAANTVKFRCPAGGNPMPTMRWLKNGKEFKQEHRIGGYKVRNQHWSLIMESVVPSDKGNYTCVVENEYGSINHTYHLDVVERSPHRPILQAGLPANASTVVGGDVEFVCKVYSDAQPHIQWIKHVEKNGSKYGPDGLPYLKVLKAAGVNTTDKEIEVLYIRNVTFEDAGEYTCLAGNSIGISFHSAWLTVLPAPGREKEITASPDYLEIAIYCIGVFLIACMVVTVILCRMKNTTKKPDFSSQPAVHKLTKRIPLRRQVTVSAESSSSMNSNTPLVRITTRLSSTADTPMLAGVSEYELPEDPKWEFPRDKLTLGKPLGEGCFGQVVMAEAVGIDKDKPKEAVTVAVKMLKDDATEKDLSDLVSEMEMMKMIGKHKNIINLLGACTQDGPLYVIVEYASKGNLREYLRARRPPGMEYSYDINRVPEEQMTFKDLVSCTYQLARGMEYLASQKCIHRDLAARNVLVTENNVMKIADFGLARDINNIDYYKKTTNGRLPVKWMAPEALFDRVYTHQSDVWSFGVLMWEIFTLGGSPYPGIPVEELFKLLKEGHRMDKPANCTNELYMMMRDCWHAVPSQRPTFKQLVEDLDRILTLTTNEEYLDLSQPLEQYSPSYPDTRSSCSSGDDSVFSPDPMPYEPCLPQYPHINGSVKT

With `C=C(C)C(=O)Nc1ccc(-c2cn3ncnc(N)c3c2-c2ccc(C(=O)NCC(F)(F)F)cc2)cc1` [Example 823], the IC50 (usually the concentration that inhibits the measured activity by half) on FGFR2 lay within 100 to 250 nM; in the test on SNU-16, 250 to 1000 nM.

Regarding `C=C(C)C(=O)Nc1ccc(-c2c(-c3ccc4[nH]nc(C)c4c3)c3c(N)ncnc3n2C)cc1` [Example 1290], the IC50 against FGFR2 and in the test with SNU-16 was 1000 to 100000 nM each time.

As to `C=C(C)C(=O)Nc1ccc(-c2c(-c3ccc(Oc4cccc(C)n4)cc3)c3c(N)ncnn3c2C)cc1` [Example 836], the IC50 is less than 100 nM against FGFR2 and no more than 100 nM in the test with SNU-16.

Consider `C=C(C)C(=O)Nc1ccc(-c2c(C3=CC[C@@H](C(=O)N4CCC5(CC5)C4)CC3)c3c(N)ncnc3n2C)cc1` (single isomer, unassigned) [Example 891], for which the IC50 on FGFR2 and with SNU-16 was 1000 to 100000 nM each time.

With `C=CC(=O)Nc1cccc(-c2c(C3=CC[C@H](C(=O)N4CCCC4)CC3)c3c(N)ncnc3n2C)c1` [Example 1018], the IC50 on FGFR2 was less than 100 nM; with SNU-16, no more than 100 nM.

On to `C=CC(=O)Nc1ccc(-c2c(-c3ccc(Oc4nccc(C)n4)cc3)c3c(N)ncnc3n2C)c(Cl)c1` [Example 1054], for which the IC50 against FGFR2 is less than 100 nM; with SNU-16 it was no more than 100 nM.

Turning to `C#Cc1cnc2cc(-c3c(-c4ccc(Oc5nccc(C)n5)c(F)c4)c4c(N)ncnc4n3C)c(C)cc2n1` [Example 1428], the IC50 is less than 100 nM against FGFR2 and no more than 100 nM with SNU-16.

In the case of `C=CC(=O)N1CC[C@H](c2c(C3=CC[C@@H](C(=O)N4CCCC4)CC3)c3c(N)ncnc3n2C)C1` (single isomer, unassigned) [Example 874], the values for the IC50 on FGFR2 and in the test on SNU-16 were 250 to 1000 nM and 100 to 250 nM, respectively.

Turning to `C=C(C)C(=O)Nc1ccc(-c2c(C3=CC[C@H](C(=O)N4CCC5(CC5)C4)CC3)c3c(N)ncnc3n2C)cc1` (single isomer, unassigned) [Example 892], the IC50 was 100 to 250 nM against FGFR2 and no more than 100 nM with SNU-16.

`C#Cc1nc2cc(-c3c(C4=CC[C@H](C(=O)N5CCC[C@H]5COC)CC4)c4c(N)ncnc4n3C)ccc2[nH]1` [Example 1346]: the IC50 against FGFR2 is less than 100 nM; with SNU-16, 250 to 1000 nM.

As for `C#Cc1ncc(-c2c(-c3ccc(C(=O)N4CCCC4)cc3)c3c(N)ncnc3n2C)cn1` [Example 968], the IC50 at FGFR2 and in the test with SNU-16 was 250 to 1000 nM throughout.

On to `C=C(C)C(=O)Nc1ccc(-c2c(-c3ccc(C(=O)NC4CC(F)(F)C4)c(OC)c3)c3c(N)ncnc3n2C)cc1` [Example 912], for which the values for the IC50 against FGFR2 and with SNU-16 were less than 100 nM and no more than 100 nM, respectively.

Regarding `C#Cc1ncc(-c2c(-c3ccc(C(=O)NCC(C)C)cc3)c3c(N)ncnc3n2C)c(C)c1F` [Example 1306], the IC50 on FGFR2 was less than 100 nM; in the test on SNU-16 it was no more than 100 nM.

For the compound `CC1=C[C@@H](C)N(c2ccc(-c3c(-c4ccc(Oc5nccc(C)n5)cc4)c4c(N)ncnc4n3C)cc2)C1=O` [Example 1114], the values for the concentration for half-maximal inhibition (IC50) against FGFR2 and in the test with SNU-16 were 250 to 1000 nM and no more than 100 nM, respectively.

Take `C=CC(=O)Nc1cccc(-c2c(C3=CC[C@@H](C(=O)N4CCCC4)CC3)c3c(N)ncnc3n2C)c1` [Example 1019]: the IC50 against FGFR2 was less than 100 nM; with SNU-16 it was no more than 100 nM.

In the case of `C=CC(=O)N[C@H]1CCc2ccc(-c3c(-c4ccc(Oc5nccc(C)n5)cc4)c4c(N)ncnc4n3C)cc2C1` (single isomer, unassigned) [Example 945], the IC50 against FGFR2 and in the test with SNU-16 was 1000 to 100000 nM in each case.

`C=C(C)C(=O)Nc1ccc(-c2c(-c3ccc4c(c3)OC[C@@H]4c3cccc(C)n3)c3c(N)ncnc3n2C)cc1` (single isomer, unassigned) [Example 919]: the IC50 against FGFR2 is 100 to 250 nM; in the test on SNU-16 it was 1000 to 100000 nM.

For the compound `C#Cc1nc2ccc(-c3c(-c4ccc(Oc5nccc(C)n5)c(F)c4)c4c(N)ncnc4n3C)cc2n1C` [Example 1395], the results for the IC50 on FGFR2 and with SNU-16 were less than 100 nM and no more than 100 nM, respectively.

In the case of `C=C(C)C(=O)Nc1ccc(-c2c(C3=CCN(Cc4ccccc4)CC3)c3c(N)ncnc3n2C)cc1` [Example 1189], the values for the IC50 against FGFR2 and in the test with SNU-16 were less than 100 nM and no more than 100 nM, respectively.

In the case of `C#Cc1ccc(-c2c(-c3ccc(Oc4nccc(C)n4)c(F)c3)c3c(N)ncnc3n2C(C)C)c(C)n1` [Example 1214], the IC50 is less than 100 nM on FGFR2 and no more than 100 nM in the test with SNU-16.

On to `C=CC(=O)Nc1ccc(-c2c(-c3cc4ccccc4[nH]3)c3c(N)ncnc3n2C)cc1` [Example 1138], for which the IC50 against FGFR2 was less than 100 nM; with SNU-16 it was no more than 100 nM.

Turning to `COCC#Cc1cc(C)c(-c2c(-c3ccc(Oc4nccc(C)n4)cc3)c3c(N)ncnc3n2C)cn1` [Example 1386], the IC50 against FGFR2 is less than 100 nM; in the test on SNU-16, no more than 100 nM.

For the compound `C#Cc1cc2c(cn1)-c1c(-c3ccc(Oc4nccc(C)n4)c(F)c3)c3c(N)ncnc3n1[C@H](C)CO2` [Example 1441], the IC50 against FGFR2 fell in the range of 250 to 1000 nM; in the test with SNU-16, 100 to 250 nM.

For the compound `C=C(C)C(=O)Nc1ccc(-c2c(-c3cnc(-c4cccc(C)c4)s3)c3c(N)ncnc3n2C)cc1` [Example 1423], the IC50 against FGFR2 and in the test on SNU-16 was 250 to 1000 nM each time.

As for `C#Cc1ncc(-c2c(-c3ccc(Oc4nccc(C)n4)cc3F)c3c(N)ncnc3n2C)c(C)c1F` [Example 1310], the IC50 on FGFR2 was less than 100 nM; in the test on SNU-16, no more than 100 nM.

Regarding `C=C1CCN(c2ccc(-c3c(-c4ccc(Oc5nccc(C)n5)cc4)c4c(N)ncnc4n3C)cn2)C1=O` [Example 1077], the results for the IC50 at FGFR2 and in the test with SNU-16 were less than 100 nM and no more than 100 nM, respectively.

With `C=CC(=O)N1CCC(n2cc(-c3c(-c4ccc(C(=O)NCC(C)(C)O)cc4)c4c(N)ncnc4n3C)cn2)CC1` [Example 854], the IC50 against FGFR2 was 100 to 250 nM; with SNU-16, no more than 100 nM.

In the case of `C=C(C)C(=O)Nc1ccc(-c2cn3ncnc(N)c3c2-c2ccc(S(=O)(=O)NC3CCC3)cc2)cc1` [Example 834], the IC50 against FGFR2 and in the test on SNU-16 was 250 to 1000 nM throughout.

`C=CC(=O)N1CC(c2c(C3=CC[C@@H](C(=O)N4CCCC4)CC3)c3c(N)ncnc3n2C)C[C@@H]1C` (stereo partly shown) [Example 890]: the IC50 against FGFR2 and in the test with SNU-16 was 1000 to 100000 nM each time.

As for `C=CC(=O)N1CCC(n2cc(-c3c(-c4ccc(C(=O)N5CC6CC5C6)cc4)c4c(N)ncnc4n3C)cn2)CC1` [Example 848], the 50% inhibitory concentration (IC50) against FGFR2 and in the test on SNU-16 was 100 to 250 nM each time.

Take `C=C(C)C(=O)Nc1ccc(-c2c(-c3ccc(OCc4ccccc4)c(F)c3)c3c(N)ncnc3n2C)cc1` [Example 1435]: the IC50 against FGFR2 and in the test with SNU-16 was 1000 to 100000 nM in each case.

For `C=C(C)C(=O)Nc1ccc(-c2c(-c3ccc4[nH]ncc4c3)c3c(N)ncnc3n2C)cc1` [Example 1390], the IC50 against FGFR2 and in the test on SNU-16 was 1000 to 100000 nM each time.

As to `C#Cc1nc2cc(-c3c(-c4ccc(Oc5nccc(C)n5)c(F)c4)c4c(N)ncnc4n3C)ccc2[nH]1` [Example 1202], the IC50 lay in the range of 1000 to 100000 nM on FGFR2 and 250 to 1000 nM in the test with SNU-16.

On to `Cn1c(C2CCN(C#N)C2)c(-c2ccc(C(=O)N3CCCC3)cc2)c2c(N)ncnc21` (stereo not shown) [Example 858], for which the results for the IC50 on FGFR2 and in the test with SNU-16 were less than 100 nM and no more than 100 nM, respectively.

Take `C#Cc1cc(C)c(-c2c(-c3ccc(Oc4nccc(C)n4)c(F)c3)c3c(C(F)F)ncnc3n2C)cn1` [Example 1432]: the half-inhibitory concentration (IC50) at FGFR2 and in the test on SNU-16 was 1000 to 100000 nM each time.

On to `C#Cc1ncc(-c2ccc(-c3c(-c4ccc(Oc5nccc(C)n5)cc4)c4c(N)ncnc4n3C)cc2)o1` [Example 1052], for which the IC50 against FGFR2 and with SNU-16 was 1000 to 100000 nM each time.

Take `C=C(C)C(=O)Nc1ccc(-c2c(C3=CC[C@@H](C(=O)N4CCCC[C@H]4C)CC3)c3c(N)ncnc3n2C)cc1` [Example 992]: the IC50 against FGFR2 fell in the range of 1000 to 100000 nM; with SNU-16, 100 to 250 nM.

On to `C=C(C)C(=O)Nc1ccc(-c2c(-c3ccc(-c4nnc(C)o4)cc3)c3c(N)ncnc3n2C)cc1` [Example 1123], for which the IC50 against FGFR2 fell in the range of 1000 to 100000 nM; in the test on SNU-16, 250 to 1000 nM.

For `C=CC(=O)Nc1ccc(-c2c(-c3cn[nH]c3)c3c(N)ncnc3n2C)cc1` [Example 1128], the half-inhibitory concentration (IC50) on FGFR2 is less than 100 nM; in the test with SNU-16 it was no more than 100 nM.

`C=C(C)C(=O)Nc1ccc(-c2c(-c3cccc(O)c3)c3c(N)ncnc3n2C)cc1` [Example 1298]: the IC50 lay within 250 to 1000 nM against FGFR2 and 1000 to 100000 nM in the test on SNU-16.

On to `C#Cc1ncc(-c2c(-c3ccc(Oc4nccc(C)n4)c(F)c3)c3c(N)ncnc3n2C)c(C)c1OC` [Example 1353], for which the IC50 against FGFR2 was less than 100 nM; with SNU-16, no more than 100 nM.

For `C=C(C)C(=O)Nc1ccc(-c2c(-c3ccc4c(c3)NCCN4C)c3c(N)ncnc3n2C)cc1` [Example 1267], the IC50 on FGFR2 and in the test with SNU-16 was 1000 to 100000 nM each time.

With `C=C(C)C(=O)Nc1ccc(-c2c(C3=CC[C@H](C(=O)N4CCC[C@H]4C)CC3)c3c(N)ncnc3n2C)cc1` [Example 1006], the IC50 against FGFR2 and in the test on SNU-16 was 250 to 1000 nM each time.

With `C#Cc1ncc(-c2c(C3=CC[C@@H](C(=O)N4CCCC4)CC3)c3c(N)ncnc3n2C)c(C)c1F` (single isomer, unassigned) [Example 1329], the figures for the half-maximal inhibitory concentration (IC50) against FGFR2 and with SNU-16 were 250 to 1000 nM and 100 to 250 nM, respectively.

Consider `C#Cc1cc(-c2c(-c3ccc(Oc4nccc(C)n4)cc3)c3c(N)ncnc3n2C)n(C)n1` [Example 1236], for which the IC50 against FGFR2 and in the test on SNU-16 was 1000 to 100000 nM each time.

Regarding `C=C(C)C(=O)Nc1ccc(-c2c(C3=CC[C@]4(CC3)Cc3ccc(C)nc3C4=O)c3c(N)ncnc3n2C)cc1` (single isomer, unassigned) [Example 1367], the concentration for half-maximal inhibition (IC50) is less than 100 nM against FGFR2 and no more than 100 nM in the test on SNU-16.

For `C#Cc1cnc(-c2c(-c3ccc(Oc4nccc(C)n4)cc3)c3c(N)ncnc3n2C)cn1` [Example 1181], the values for the IC50 against FGFR2 and in the test on SNU-16 were less than 100 nM and no more than 100 nM, respectively.

In the case of `C=C(C)C(=O)Nc1ccc(-c2c(-n3ccc(C(=O)N4CCCC4)cc3=O)c3c(N)ncnc3n2C)cc1` [Example 898], the results for the IC50 at FGFR2 and in the test with SNU-16 were less than 100 nM and no more than 100 nM, respectively.

Regarding `C#Cc1cc(C)c(-c2c(C3=CC[C@H](C(=O)N4CCCC4)CC3)c3c(N)ncnc3n2C)cn1` [Example 1111], the IC50 at FGFR2 is less than 100 nM; with SNU-16, no more than 100 nM.

As to `C#Cc1cc(OC)c(-c2c(C3=CC[C@@H](C(=O)N4CCC[C@H]4C#N)CC3)c3c(C)ncnc3n2C)cn1` [Example 1467], the figures for the IC50 against FGFR2 and with SNU-16 were 250 to 1000 nM and no more than 100 nM, respectively.

For the origin of these results see patent US11780845B2 (Relay Therapeutics, Inc., priority 2019, dated 2023).
